For one test, the system named is MOLM-13 cells. Description: Cell proliferation assay (alamarBlue), MOLM-13. The format is cell-based. The note with it: Homo sapiens, MOLM-13; acute myeloid leukaemia cell line, 96 h incubation. On the procedure: (§1) In accordance with the invention, the ability of the substances to inhibit cell proliferation was determined. Cell viability was determined by means of the alamarBlue® reagent (Invitrogen) in a Victor X3 Multilabel Reader (Perkin Elmer). The excitation wavelength was 530 nm and the emission wavelength […].
The MOLM-13 cells (DSMZ, ACC 554) were sown at a concentration of 4000 cells/well in 100 μl of growth medium (RPMI1640, 10% FCS) on 96-well microtitre plates.
(§2) The MDA-MB-231 cells (DSMZ, ACC 732) were sown at a concentration of 4000 cells/well in 100 μl of growth medium (DMEM/Ham's F12 medium, 10% FCS) on 96-well microtitre plates. After overnight incubation at 37° C., the fluorescence values (CI values) were determined. Then the plates were treated with various substance dilutions (1E-5 M, 3E-6 M, 1E-6 M, 3E-7 M, 1E-7 M, 3E-8 M, 1E-8 M) and incubated at 37° C. for 72 (MV4-11, LOX-IMVI cells), 96 (MOLM-13, B16F10, […] cells), 120 (MOLP-8, KMS-12-PE cells) or 168 (LAPC-4 cells) hours. Subsequently, the fluorescence values were determined (CO values). For the data analysis, the CI values were subtracted from the CO values and the results were compared between cells which had been treated with various dilutions of the substance or only with buffer solution. This was used to calculate the IC50 values (substance concentration required for 50% inhibition of cell proliferation).
(§3) The substances were examined in the cell lines of Table 1 which, in an exemplary manner, represent the stated indications: […]
Background: The colour change of resazurin is a common sign of viable cells or microbes.

Another test deals with B16F10 cells. Description: Cell proliferation assay (alamarBlue), B16F10. It is filed as cell-based. The note with it: Mus musculus, B16-F10; melanoma (BRAF wild-type) cell line, 96 h incubation. How it is done: as §1
The B16F10 cells (ATCC, CRL-6475) were sown at a concentration of 300-500 cells/well in 100 μl of growth medium (DMEM with phenol red, 10% FCS) on 96-well microtitre plates.
as §2, §3

The target of a further test is T1, BRD4 (BD1) (Homo sapiens, UniProt O60885).
T1 construct: longer constructs also being possible, preferably amino acids 44-168; made in house; host or cells: E. coli
Put plainly: Binding assay BRD4/acetylated peptide H4 (TR-FRET protein-protein interaction assay). The note with it: BRD4 (BD1) / acetylated histone H4 peptide. From the text:
To assess the BRD4 binding strength of the substances described in this application, the ability thereof to inhibit the interaction between BRD4 (BD1) and acetylated histone H4 in a dose-dependent manner was quantified.
For this purpose, a time-resolved fluorescence resonance energy transfer (TR-FRET) assay was used, which measures the binding between N-terminally His6-tagged BRD4 (BD1) (amino acids 67-152, longer constructs also being possible, preferably amino acids 44-168) and a synthetic acetylated histone H4 (Ac—H4) peptide with sequence GRGK(Ac)GGK(Ac)GLGK(Ac)GGAK(Ac)RHGSGSK-biotin. The recombinant BRD4 protein produced in-house according to Filippakopoulos et al., Nature, 2010, 468:1119-1123 was expressed in E. coli and purified by means of (Ni-NTA) affinity and (Sephadex G-75) size exclusion chromatography. The Ac—H4 peptide can be purchased, for example, from Biosyntan (Berlin, Germany).
In the assay, typically 11 different concentrations of each substance (0.1 nM, 0.33 nM, 1.1 nM, 3.8 nM, 13 nM, 44 nM, 0.15 μM, 0.51 μM, 1.7 μM, 5.9 μM and 20 μM) were analysed as duplicates on the same microtitre plate. For this purpose, 100-fold concentrated solutions in DMSO were prepared by serial dilutions (1:3.4) of a 2 mM stock solution into a clear, 384-well microtitre plate (Greiner Bio-One, Frickenhausen, Germany). From this, 50 nl were transferred into a black test plate (Greiner Bio-One, Frickenhausen, Germany). The test was started by the addition of 2 μl of a 2.5-fold concentrated BRD4 solution (final concentration typically 10 nM in the 5 μl of reaction volume) in aqueous assay buffer [50 mM HEPES pH 7.5, 50 mM sodium chloride (NaCl), 0.25 mM CHAPS and 0.05% serum albumin (BSA)] to the substances in the test plate. This was followed by a 10-minute incubation step at 22° C. for the pre-equilibration of putative complexes between BRD4 and the substances.
The mixture was then incubated in the dark at 22° C. for one hour and then at 4° C. for at least 3 hours and for no longer than overnight. The formation of BRD4/Ac—H4 complexes was determined by the measurement of the resonance energy transfer from the streptavidin-Eu cryptate to the anti-6His-XL665 antibody present in the reaction. For this purpose, the fluorescence emission was measured at 620 nm and 665 nm after excitation at 330-350 nm in a TR-FRET measuring instrument, for example a Rubystar or Pherastar (both from BMG Lab Technologies, Offenburg, Germany) or a Viewlux (Perkin-Elmer). The ratio of the emissions at 665 nm and at […] was taken as an indicator of the amount of BRD4/Ac—H4 complexes formed.
The data (ratios) obtained were normalized, with 0% inhibition corresponding to the mean from the measurements for a set of controls (typically 32 data points) in which all the reagents were present. In these, in place of test substances, 50 nl of DMSO (100%) were used. Inhibition of 100% corresponded to the mean from the measurements for a set of controls (typically 32 data points) in which all the reagents except BRD4 were present. The IC50 was determined by regression analysis based on a 4-parameter equation (minimum, maximum, IC50, Hill; Y=max+(min−max)/(1+(X/IC50)^Hill)).

A further test concerns MOLP-8 cells. Description: Cell proliferation assay (alamarBlue), MOLP-8. It is filed as cell-based. The settings on record: Homo sapiens, MOLP-8; multiple myeloma cell line, 120 h incubation. How it is done:
as §1
The MOLP-8 cells (DSMZ, ACC 569) were sown at a concentration of 4000 cells/well in 100 μl of growth medium (RPMI1640, 20% FCS) on 96-well microtitre plates.
as §2, §3

Usually IC50 stands for the midpoint of a concentration-inhibition curve. Take `CNC(=O)N1N=C(c2ccc(N3CC4(CN(C(=O)OC(C)(C)C)C4)C3)cc2)c2cc(OC)c(OC)cc2CC1C` (racemic) [Example 8, tert-butyl 6-{4-[(±)-7,8-dimethoxy-4-methyl-3-(methylcarbamoyl)-4,5-dihydro-3H-2,3-benzodiazepine-1-yl]phenyl}-2,6-diazaspiro[3.3]heptane-2-carboxylate]: the IC50 worked out at 260 nM with MOLM-13 cells, 180 nM in the test with B16F10 cells, 140 nM at BRD4 (BD1) and 160 nM in the test with MOLP-8 cells.
For `CNC(=O)N1N=C(c2ccc(N3CCC4(CCCC4)CC3)cc2)c2cc(OC)c(OC)cc2CC1C` (racemic) [Example 9, (±)-1-[4-(8-azaspiro[4.5]dec-8-yl)phenyl]-7,8-dimethoxy-N,4-dimethyl-4,5-dihydro-3H-2,3-benzodiazepine-3-carboxamide] the same measures were 500 nM, 140 nM, 250 nM and 460 nM.
On the same counts, the results for `CNC(=O)N1N=C(c2ccc(N3CC4(CN(Cc5ccccc5)C4)C3)cc2)c2cc(OC)c(OC)cc2CC1C` (racemic) [Example 10, (±)-1-[4-(6-benzyl-2,6-diazaspiro[3.3]hept-2-yl)phenyl]-7,8-dimethoxy-N,4-dimethyl-4,5-dihydro-3H-2,3-benzodiazepine-3-carboxamide] are 150 nM, 150 nM, 80 nM and 80 nM.
Consider `CNC(=O)N1N=C(c2ccc(N3CCCC4(COC4)C3)cc2)c2cc(OC)c(OC)cc2CC1C` (racemic) [Example 11, (±)-7,8-dimethoxy-N,4-dimethyl-1-[4-(2-oxa-6-azaspiro[3.5]non-6-yl)phenyl]-4,5-dihydro-3H-2,3-benzodiazepine-3-carboxamide], for which the IC50 in the test with MOLM-13 cells came to 160 nM; with B16F10 cells, 100 nM; on BRD4 (BD1) it was 60 nM; with MOLP-8 cells, 100 nM.
As for `CNC(=O)N1N=C(c2ccc(N3CCC4(CC3)COC4)cc2)c2cc(OC)c(OC)cc2CC1C` (racemic) [Example 12, (±)-7,8-dimethoxy-N,4-dimethyl-1-[4-(2-oxa-7-azaspiro[3.5]non-7-yl)phenyl]-4,5-dihydro-3H-2,3-benzodiazepine-3-carboxamide], the IC50 in the test with MOLM-13 cells stood at 220 nM; in the test on B16F10 cells, 170 nM; on BRD4 (BD1), 80 nM; in the test with MOLP-8 cells it was 140 nM.
On the same counts, the results for `CNC(=O)N1N=C(c2cccc(N3CC4(CCS4(=O)=O)C3)c2)c2cc(OC)c(OC)cc2CC1C` (racemic) [Example 14, 1-[3-(1,1-dioxido-1-thia-6-azaspiro[3.3]hept-6-yl)phenyl]-7,8-dimethoxy-N,4-dimethyl-4,5-dihydro-3H-2,3-benzodiazepine-3-carboxamide] are 330 nM, 260 nM, 170 nM and 240 nM.
On the same counts, the results for `CNC(=O)N1N=C(c2ccc(F)c(N3CC4(CCS4(=O)=O)C3)c2)c2cc(OC)c(OC)cc2CC1C` (racemic) [Example 15, (±)-1-[3-(1,1-dioxido-1-thia-6-azaspiro[3.3]hept-6-yl)-4-fluorophenyl]-7,8-dimethoxy-N,4-dimethyl-4,5-dihydro-3H-2,3-benzodiazepine-3-carboxamide] are 600 nM, 590 nM, 250 nM and 480 nM.
In the case of `CNC(=O)N1N=C(c2ccc(N3CC4(CCS4(=O)=O)C3)cc2)c2cc(OC(F)(F)F)ccc2CC1C` (racemic) [Example 18, (±)-1-[4-(1,1-dioxido-1-thia-6-azaspiro[3.3]hept-6-yl)phenyl]-N,4-dimethyl-8-(trifluoromethoxy)-4,5-dihydro-3H-2,3-benzodiazepine-3-carboxamide], the IC50 in the test on MOLM-13 cells was determined as 70 nM; in the test with B16F10 cells, 60 nM; on BRD4 (BD1), 40 nM; in the test with MOLP-8 cells it was 60 nM.
With `CNC(=O)N1N=C(c2ccc(-c3ccc4c(c3)OCO4)cc2)c2cc(OC)c(OC)cc2CC1C` (racemic) [Example 27, (±)-1-[4-(1,3-benzodioxol-5-yl)phenyl]-7,8-dimethoxy-N,4-dimethyl-4,5-dihydro-3H-2,3-benzodiazepine-3-carboxamide], the IC50 in the test with MOLM-13 cells came to 480 nM; with B16F10 cells it was 350 nM; at BRD4 (BD1), 110 nM; with MOLP-8 cells, 460 nM.
For `CNC(=O)N1N=C(c2ccc(N3CCC4(COC4)C3)cc2)c2cc(OC)c(OC)cc2CC1C` (racemic) [Example 29, (±)-7,8-dimethoxy-N,4-dimethyl-1-[4-(2-oxa-6-azaspiro[3.4]oct-6-yl)phenyl]-4,5-dihydro-3H-2,3-benzodiazepine-3-carboxamide] the same measures were 220 nM, 100 nM, 50 nM and 90 nM.
For the compound `CNC(=O)N1N=C(c2ccc(N3CCN4CCCC4C3)cc2)c2cc(OC)c(OC)cc2CC1C` (racemic) [Example 30, (±)-1-[4-(hexahydropyrrolo[1,2-a]pyrazin-2(1H)-yl)phenyl]-7,8-dimethoxy-N,4-dimethyl-4,5-dihydro-3H-2,3-benzodiazepine-3-carboxamide], the IC50 with MOLM-13 cells is 200 nM; on BRD4 (BD1) it was 70 nM; in the test on MOLP-8 cells, 90 nM.
`CNC(=O)N1N=C(c2ccc(N3C[C@H]4CN(C)C[C@H]4C3)cc2)c2cc(OC)c(OC)cc2CC1C` (mixture of isomers) [Example 33, (±)-7,8-dimethoxy-N,4-dimethyl-1-{4-[(3aR,6aS)-5-methylhexahydropyrrolo[3,4-c]pyrrol-2(1H)-yl]phenyl}-4,5-dihydro-3H-2,3-benzodiazepine-3-carboxamide]: the IC50 amounted to 220 nM in the test on MOLM-13 cells, 90 nM at BRD4 (BD1) and 110 nM in the test on MOLP-8 cells.

The values are drawn from patent publication US20160129011A1, “BICYCLO 2,3-BENZODIAZEPINES AND SPIROCYCLICALLY SUBSTITUTED 2,3-BENZODIAZEPINES” (BAYER PHARMA AKTIENGESELLSCHAFT, priority 2013, published 2016).
